Literature values, collected in patent publication US20070292393A1, “USE OF THYMOSIN ALPHA 1 FOR PREPARING A MEDICAMENT FOR THE TREATMENT OF STAGE IV MALIGNANT MELANOMA” (SIGMA-TAU INDUSTRIE FARMACEUTICHE RIUNITE S.P.A., priority 2006, published 2007).

Tested on: metastatic melanoma

Q: Which results are given for `CN(C)/N=N/c1[nH]cnc1C(N)=O` [DTIC, Dacarbazine]?
A: effect of responses on patients' overall survival: no evidence; actual overall responses to DTIC (recent publications (J Clin Oncol, ASCO 2004)): 5.5-6.8%; duration of responses (responses short-lived): three to six
